Where two headings read alike, the source gives them in different places.

In series [1] the test system is Parent elite stiff stalk inbred corn. Put plainly: Preemergence herbicide application to potted corn (fresh weight, visual injury). The series is classed as in vivo. To be noted: for Crop visual injury at 200 g/ha: Zea mays, pre-emergence, 672 h, read-out: % Visual Injury; for Fresh Weight: fresh shoots weighed 4 weeks after treatment, untreated 36.7 g.
The subject of series [2] is Heterozygous GAT-HRA corn. The series is described as above. As to conditions: for Crop visual injury at 200 g/ha: Zea mays, pre-emergence, 672 h, read-out: % Visual Injury; for Fresh Weight: fresh shoots weighed 4 weeks after treatment, untreated 47.0 g. The format is in vivo.
The subject of series [3] is Heterozygous GAT-HRA corn. Put plainly: Postemergence herbicide application to potted corn (fresh weight, visual injury). The format is in vivo. As to conditions: for Fresh Weight: weighed 2 weeks after treatment, untreated 98.8 g; for Visual crop injury (%) at 200 g/ha / % Visual Injury: 0% no injury, 100% plant death.
In series [4] the test system is Parent elite stiff stalk inbred corn. The description is as above. The series is classed as in vivo. To be noted: for Fresh Weight: weighed 2 weeks after treatment, untreated 76.4 g; for % visual injury to corn at 200 g/ha / % Visual Injury: 0% no injury, 100% plant death.
In series [5] the test system is Soybeans comprising the lead GAT7 event and also having HRA. The experiment in a line: Greenhouse test confirming the field trial (Example 6B). As to conditions: GAT/HRA Soybeans. The series is classed as in vivo, soybean. The source says: Example 6B provides greenhouse data that confirms the field trial data provided above in Example 6A. Soybeans comprising the lead GAT7 event and also having HRA were used in the studies.

Series [6] has as its system Hairy Fleabane (Conyza bonariensis), glyphosate sensitive biotype. Put plainly: Control of hairy fleabane by glyphosate, metsulfuron-methyl and two additives. The series is classed as in vivo. As to conditions: 10-15 leaf stage, 200 L ha^−1. As to the method: This example included the same treatments as used in Example 11, except the treatments were carried out on a glyphosate sensitive biotype of Kleinskraalhans (Conyza bonariensis).

The test system of series [7] is control maize. Put plainly: Postemergence herbicide spray of maize at V2 stage, injury evaluated 10-14 days after. To be noted: 200 g ai/ha (metsulfuron-methyl 35 g ai/ha). The series is classed as in vivo.
Series [8] concerns GAT-HRA maize. Described as above. The format is in vivo. As to conditions: 200 g ai/ha (metsulfuron-methyl 35 g ai/ha). As for the experimental part:
GAT-HRA maize plants were evaluated for tolerance to glyphosate and other herbicides. One protocol used in this evaluation was as follows. At the V2 stage (Ritchie and Hanway (1982), “How a corn plant develops” Spec. Rep. 48. (Coop. Ext. Ser., Iowa State Univ., Ames, Iowa)), plant heights were measured and herbicides were applied by spray application. Ten to fourteen days after the spray application, the transgenic plants were evaluated for injury symptoms and measured for plant height again in order to determine plant growth rates.
Plants were then evaluated at various times after treatment, such as 10 or 14 days after treatment. […] Leaf samples were taken from GAT-HRA plants and used in quantitative PCR analysis and other analyses to determine the number and arrangement of copies of the GAT and HRA polynucleotides that had been integrated into the plant genome.
Other protocols for evaluation included treatment with imidazolinone herbicides, such as the commercial herbicide Lightning® (a combination of imazapyr and imazethapyr), which was applied to GAT-HRA maize at the V2 leaf stage at four times the field label rate (250 g ai/ha). […] Another protocol for evaluation included treatment with imidazolinone herbicides as well as sulfonylurea and glyphosate herbicides. In these tests, GAT-HRA maize was treated with various combinations of Lightning® (imazapyr and imazethapyr), Basis® (rimsulfuron and thifensulfuron-methyl) and WeatherMAX® (glyphosate potassium salt). These herbicides were applied at the V2 stage as follows: Lightning® at twice the field label rate (1.8 oz ai/ac (133 ml ai/ha)), Basis® at twice the field label rate (0.5 oz ai/ac (36.9 ml ai/ha)) and WeatherMax® at four times the field label rate (43 oz ai/ac). Fourteen days after the treatment application, the plants were evaluated. […] “Field label rate” refers to the application rate specified on the product label. Where the application rate for a particular situation is a range of rates, as used herein, the term “field label rate” indicates the upper end of that range. […]

Series [9] concerns non-glyphosate resistant ryegrass. Put plainly: Control of ryegrass by glyphosate, metsulfuron-methyl and two additives. The series is classed as in vivo. To be noted: metsulfuron-methyl (BRUSH-OFF) alone. As to the method:
The example was conducted on non-glyphosate resistant ryegrass. As provided in Table 23, all treatments that included glyphosate [180 g a.i. L ha^−1 (0.5 L glyphosate (SCAT®))] plus metsulfuron-methyl (BRUSH-OFFS®) (5 and 10 g ha^−1) gave 100% control of the ryegrass.

The mark [10] stands for this setting: preemergence, 200 g/ha, 0% no injury, 100% plant death, mean of four replications.
The mark [11] stands for this setting: preemergence, 200 g/ha, mean of four replications.
Where [12] appears, read: 200 g/ha, mean of four replications.
The mark [13] stands for this setting: Zea mays, post-emergence, 200 g/ha, mean of four replications.
Setting [14] is: Zea mays, post-emergence, 1870 g/ha.

In the case of `COc1nn(C(=O)NS(=O)(=O)c2ccccc2OC(F)(F)F)c(=O)n1C` [Flucarbazone Na^+, 4,5-dihydro-3-methoxy-4-methyl-5-oxo-N-[[2-(trifluoromethoxy)phenyl]sulfonyl]-1H-1,2,4-triazole-1-carboxamide], the Crop visual injury at 200 g/ha in [1] (setting [10]) was found to be 100%; in series [2] (setting [10]), 40%. Moreover, the “Fresh Weight” value in [1] (setting [11]) was determined as 0.0 g; in series [3] (setting [12]) it was 86.0 g; in [4] (setting [12]), 3.1 g. Further, the Visual crop injury (%) at 200 g/ha in series [3] (setting [13]) stood at 14%. For the same compound, the % visual injury to corn at 200 g/ha in series [4] (setting [13]) worked out at 100%.
For `CCc1cnc(C2=NC(C)(C(C)C)C(=O)N2)c(C(=O)O)c1` (centres unmarked) [Imazethapyr], the “% Growth Reduction” value in series [5] (Rimsulfuron 0 + Imazethapyr 560 g ai/ha, Treatment # 4) is given as −1%; in [5] (Rimsulfuron 0 + Imazethapyr 1024 g ai/ha, Treatment # 5) it was 10%.
Take `COC(=O)c1ccccc1S(=O)(=O)NC(=O)Nc1nc(C)nc(OC)n1` [Metsulfuron-methyl (BRUSH-OFF ®)]: the “Control (%)” value in series [6] (metsulfuron-methyl (BRUSH-OFF) 5 g/ha) and in series [6] (metsulfuron-methyl (BRUSH-OFF) 10 g/ha) was 100% each time.
With Imazamethabenz-methyl, the “Fresh Weight” value was found to be 36.2 g in series [1] (setting [11]), 48.5 g in [2] (setting [11]), 95.0 g in series [3] (setting [12]) and 66.9 g in series [4] (setting [12]). In addition, the “% Visual Injury” value in series [3] (setting [12]) came out at 16%; in [4] (setting [12]), 11%.
In the case of `COC(=O)c1ccccc1S(=O)(=O)NC(=O)Nc1nc(C)nc(OC)n1` [Metsulfuron-methyl, methyl 2-[[[[(4-methoxy-6-methyl-1,3,5-triazin-2-yl)amino]carbonyl]amino]sulfonyl]benzoate], the “damage from the treatment” value is given as “severely damaged or killed” in [7] and “no significant damage” in [8]. In addition, the “effect on its own” value in series [9] is “did nothing accept stunt the ryegrass plants slightly”.
On to `COC(=O)c1ccccc1S(=O)(=O)NC(=O)Nc1nc(C)cc(C)n1` [Sulfometuron-methyl, methyl 2-[[[[(4,6-dimethyl-2-pyrimidinyl)amino]carbonyl]amino]sulfonyl]-benzoate], for which, in series [4] (setting [12]), the “Fresh Weight” value is 2.0 g.
In the case of `COc1cc(OC)nc(Sc2cccc(Cl)c2C(=O)[O-])n1.[Na+]` [Pyrithiobac Na^+], the “Fresh Weight” value in series [1] (setting [11]) was 0.0 g; in [4] (setting [12]), 2.8 g. Moreover, the figures for the “% Visual Injury” value in series [3] (setting [12]) and in [4] (setting [12]) were 9% and 100%, respectively.
Regarding `CP(=O)(O)CCC(N)C(=O)O` (centres unmarked) [Glufosinate ammonium], the entries for the “Fresh Weight” value in series [3] (1870 g/ha) and in [4] (1870 g/ha) were 112.3 g and 2.4 g, respectively. The compound further showed a Visual crop injury (%) at 1870 g/ha in series [3] (setting [14]) of 1%. The % visual injury to corn at 1870 g/ha in series [4] (setting [14]) amounted to 99%.
As to `CC(C)C1(C)N=C(c2ncccc2C(=O)O)NC1=O` (centres unmarked) [Imazapyr], the “damage from the treatment” value in series [7] is “severely damaged or killed”; in series [8], “no significant damage”.
For the compound `CCOc1nc(F)cc2nc(S(=O)(=O)Nc3c(Cl)cccc3C(=O)OC)nn12` [Chloransulam-methyl, methyl 3-chloro-2-[[(5-ethoxy-7-fluoro-[1,2,4]triazolo [1,5-c]pyrimidin-2-yl)sulfonyl]amino]benzoate], the Crop visual injury at 200 g/ha in [1] (setting [10]) and in [2] (setting [10]) was 3% throughout. In addition, the “Fresh Weight” value is reported as 5.5 g in series [1] (setting [11]) and 6.8 g in [4] (setting [12]). In [3] (setting [13]), this compound showed a Visual crop injury (%) at 200 g/ha of 3%. In addition, in [4] (setting [13]), the % visual injury to corn at 200 g/ha came to 96%.
For the compound `CCCOc1nn(C(=O)NS(=O)(=O)c2ccccc2C(=O)OC)c(=O)n1C` [Propoxycarbazone Na^+, methyl 2-[[[(4,5-dihydro-4-methyl-5-oxo-3-propoxy-1H-1,2,4-triazol-1-yl)carbonyl]amino]sulfonyl]benzoate], the Crop visual injury at 200 g/ha in [1] and in series [2] was 100% in each case. The “Fresh Weight” value was determined as 0.6 g in series [1] (setting [11]) and 1.9 g in [4] (setting [12]). In [3] (setting [13]), this compound displayed a Visual crop injury (%) at 200 g/ha of 9%. Also, in [4] (setting [13]), the % visual injury to corn at 200 g/ha came to 100%.
As to `O=C(O)CNCP(=O)(O)O` [glyphosate (ROUNDUP ®)], in series [6] (glyphosate (ROUNDUP, 360 g a.i. L^−1) 0.5 L/ha), the “Control (%)” value is 12%.
With `CCOC(=O)c1ccccc1S(=O)(=O)NC(=O)Nc1nc(Cl)cc(OC)n1` [Chlorimuron-ethyl, ethyl 2-[[[[(4-chloro-6-methoxy-2-pyrimidinyl)amino]carbonyl]amino]sulfonyl]-benzoate], the “damage from the treatment” value in [7] was “severely damaged or killed”; in series [8], “no significant damage”.
For the compound `COC(=O)c1ccc(C(F)(F)F)nc1S(=O)(=O)NC(=O)Nc1nc(OC)cc(OC)n1` [Flupyrsulfuron-methyl Na^+, methyl 2-[[[[(4,6-dimethoxy-2-pyrimidinyl)amino]carbonyl]amino]sulfonyl]-6-(trifluoromethyl)-3-pyridinecarboxylate], the Crop visual injury at 200 g/ha in [1] (setting [10]) came out at 87%; in series [2] (setting [10]), 90%. In [3] (setting [13]), the Visual crop injury (%) at 200 g/ha was 4%. Besides, the “Fresh Weight” value in [4] (setting [12]) was found to be 5.2 g. In addition, the % visual injury to corn at 200 g/ha in series [4] (setting [13]) stood at 95%.
As for `COc1cc(OC)nc(NC(=O)NS(=O)(=O)c2ncccc2OCC(F)(F)F)n1` [Trifloxysulfuron Na^+, N-[[(4,6-dimethoxy-2-pyrimidinyl)amino]-carbonyl]-3-(2,2,2-trifluoroethoxy)-2-pyridinesulfonamide], the values for the Crop visual injury at 200 g/ha in series [1] (setting [10]) and in series [2] (setting [10]) were 100% and 0%, respectively. For the same compound, the “Fresh Weight” value came to 0.0 g in series [1] (setting [11]), 50.8 g in series [2] (setting [11]), 86.6 g in series [3] (setting [12]) and 1.0 g in series [4] (setting [12]). This compound had a Visual crop injury (%) at 200 g/ha in series [3] (setting [13]) of 29%. Further, the % visual injury to corn at 200 g/ha in [4] (setting [13]) was 100%.
As to `COC(=O)c1ccc(I)cc1S(=O)(=O)NC(=O)Nc1nc(C)nc(OC)n1` [Iodosulfuron-methyl Na^+, methyl 4-iodo-2-[[[[(4-methoxy-6-methyl-1,3,5-triazin-2-yl)amino]carbonyl]amino]sulfonyl]benzoate], the Crop visual injury at 200 g/ha in [1] (setting [10]) worked out at 92%; in series [2] (setting [10]), 5%. In addition, the “Fresh Weight” value in series [3] (setting [12]) turned out to be 95.0 g; in series [4] (setting [12]), 3.5 g. The compound also registered a Visual crop injury (%) at 200 g/ha in series [3] (setting [13]) of 1%. Also, the % visual injury to corn at 200 g/ha in series [4] (setting [13]) came out at 100%.
As for `COC(=O)c1cccc(C)c1S(=O)(=O)NC(=O)Nc1nc(OCC(F)(F)F)nc(N(C)C)n1` [Triflusulfuron-methyl], the “Fresh Weight” value in series [1] (setting [11]) is given as 26.3 g; in [2] (setting [11]), 53.5 g; in [3] (setting [12]), 110.9 g; in [4] (setting [12]) it was 2.1 g. Further, the “% Visual Injury” value worked out at 8% in series [3] (setting [12]) and 100% in series [4] (setting [12]).

(Values after US7973218B2, “Methods and compositions for controlling weeds” (Pioneer Hi-Bred International, Inc., priority 2005, dated 2011).)
